Where two headings read alike, the source gives them in different places.
What was measured:
[1] = tested on: Plasmodium falciparum 3D7-A10 parasites; test: Stage specificity assay (8-h exposure of synchronized stages, IC50^8h); format: cell-based; details: for IC50: Plasmodium falciparum
[2] = tested on: 3D7-MR4 trophozoite parasite-infected RBCs; test: Metabolomic profiling (hydrophilic metabolite changes, UHPLC-MS); format: cell-based, Plasmodium falciparum
[3] = tested on: asynchronous 3D7-A10 parasite cultures; test: Standard 72-h exposure asexual blood stage susceptibility assay (IC50^72h); format: cell-based, Plasmodium falciparum; details: Plasmodium falciparum, 3D7, 72 h, read-out: Overall (72hr assay) Mean IC50 (IC50^72h)
[4] = tested on: 3D7-A10 or Dd2-B2 parasites; details: 3 × IC50^72h drug concentrations; ref Phillips et al., 2015; cited from earlier work

O=C1C(O)=C([C@H]2CC[C@H](c3ccc(Cl)cc3)CC2)C(=O)c2ccccc21 [Atovaquone, reference compound]
overall activity profile (stages on which active) ([1]; 8-h exposures): activity against late trophozoites only
killing in stage specificity assay ([1]; 8-h exposures, survival curves): incomplete killing
IC50 ([1]; 3D7, read-out: Early rings Mean IC50, shift 2): 553 nM
IC50 ([1]; 3D7, read-out: Early trophozoites Mean IC50, shift 1): 0.68 nM
IC50 ([1]; 3D7, read-out: Early trophozoites Mean IC50, shift 2): 619 nM
IC50 ([1]; 3D7, read-out: Late rings Mean IC50, shift 2): 324 nM
IC50 ([1]; 3D7, read-out: Late trophozoites Mean IC50, shift 1): 3.7 nM
IC50 ([1]; 3D7, read-out: Schizonts IC50, shift 2): > 25000 nM
IC50 ([1]; 3D7, read-out: Schizonts Mean IC50, shift 1): 7.4 nM
shape of survival curve ([1]; early trophozoite and schizont stages): biphasic survival curve
Stage of peak activity (Figure 6) ([1]; period when the parasite was most susceptible (lowest IC50^8h)): late trophozoite stages
Peak Activity (Table S1) ([1]; stage(s) with the lowest IC50^8h): Late Trophs
Log2(fold change) Myristoyl/tetradecanoyl-CoA [2]: -0.0411
Log2(fold change) Octoluse 8/1P [2]: 0.0910
Log2(fold change) succinate/Methylmalonic acid [2]: -0.8517
Log2(fold change) succinyl-CoA/methylmalonyl-CoA [2]: -0.2938
Log2(fold change) threonine/homoserine [2]: 0.0177
metabolic signature: increases in the pyrimidine precursors dihydroorotate and N-carbamoyl-L-aspartate (mETC disruption) ([2]; 10 × IC50^72h, 2.5 hr, trophozoites): observed
Log2(fold changes) 3-phosphoglycerate ([2]; metabolite 3-phosphoglycerate, log2 fold change): -0.1329
Log2(fold changes) 4-Pyridoxic acid ([2]; metabolite 4-Pyridoxic acid, log2 fold change): 0.0014
Log2(fold changes) 4-aminobutyrate ([2]; metabolite 4-aminobutyrate, log2 fold change): 0.1923
Log2(fold changes) 4-phosphopantetheine ([2]; metabolite 4-phosphopantetheine, log2 fold change): 0.0048
Log2(fold changes) 4-phosphopantothenate ([2]; metabolite 4-phosphopantothenate, log2 fold change): -0.3512
Log2(fold changes) 5-aminopentanoic acid ([2]; metabolite 5-aminopentanoic acid, log2 fold change): -0.0149
Log2(fold changes) 5-methyl-THF ([2]; metabolite 5-methyl-THF, log2 fold change): -0.0146
Log2(fold changes) 5-phosphoribosyl-1-pyrophosphate ([2]; metabolite 5-phosphoribosyl-1-pyrophosphate, log2 fold change): -0.1198
Log2(fold changes) 6-phospho-D-gluconate ([2]; metabolite 6-phospho-D-gluconate, log2 fold change): 0.0051
Log2(fold change) HVDD ([2]; metabolite HVDD): 0.0262
Log2(fold change) Hydroxyisocaproic acid ([2]; metabolite Hydroxyisocaproic acid): -0.0150
Log2(fold change) IDP ([2]; metabolite IDP): 0.0185
Log2(fold change) IMP ([2]; metabolite IMP): 0.1599
Log2(fold change) Inositol ([2]; metabolite Inositol): 0.0000
Log2(fold change) Isopentyl-PP ([2]; metabolite Isopentyl-PP): -0.0191
Log2(fold change) L-arginino-succinate ([2]; metabolite L-arginino-succinate): 0.1909
Log2(fold change) LD ([2]; metabolite LD): 0.1960
Log2(fold change) N-Acetyl-L-alanine ([2]; metabolite N-Acetyl-L-alanine): -0.3227
Log2(fold change) N-acetyl-L-ornithine ([2]; metabolite N-acetyl-L-ornithine): 0.1921
Log2(fold change) N-acetyl-glucosamine-1/6-phosphate ([2]; metabolite N-acetyl-glucosamine-1/6-phosphate): 0.3531
Log2(fold change) N-acetyl-glutamate ([2]; metabolite N-acetyl-glutamate): 0.0422
Log2(fold change) N-acetyl-glutamine ([2]; metabolite N-acetyl-glutamine): -0.1228
Log2(fold change) N-carbamoyl-L-aspartate ([2]; metabolite N-carbamoyl-L-aspartate): 2.7565
Log2(fold change) NAD+ ([2]; metabolite NAD+): -0.0365
Log2(fold change) NADH ([2]; metabolite NADH): -0.0409
Log2(fold change) NADP+ ([2]; metabolite NADP+): 0.1141
Log2(fold change) NADPH ([2]; metabolite NADPH): -0.0085
Log2(fold change) O-acetyl-L-serine ([2]; metabolite O-acetyl-L-serine): 0.0000
Log2(fold change) Octoluse Bisphosphate ([2]; metabolite Octoluse Bisphosphate): -0.0867
Log2(fold change) PD ([2]; metabolite PD): 0.2066
Log2(fold change) PE ([2]; metabolite PE): 0.2833
Log2(fold change) PEE ([2]; metabolite PEE): 0.1525
Log2(fold change) PEEK ([2]; metabolite PEEK): 0.2544
Log2(fold change) PVNF ([2]; metabolite PVNF): -0.1256
Log2(fold change) Pyroglutamic acid ([2]; metabolite Pyroglutamic acid): -0.4514
Log2(fold change) Pyrophosphate ([2]; metabolite Pyrophosphate): -0.0311
Log2(fold change) Ribose-5-phosphate ([2]; metabolite Ribose-5-phosphate): -0.0776
Log2(fold change) S-adenosyl-L-homocysteine ([2]; metabolite S-adenosyl-L-homocysteine): -0.0546
Log2(fold change) S-adenosyl-L-methioninamine ([2]; metabolite S-adenosyl-L-methioninamine): 0.0342
Log2(fold change) S-adenosyl-L-methionine ([2]; metabolite S-adenosyl-L-methionine): 0.0000
Log2(fold change) S-methyl-5'-thioadenosine ([2]; metabolite S-methyl-5'-thioadenosine): 0.1207
Log2(fold change) SD ([2]; metabolite SD): 0.1611
Log2(fold change) SDL ([2]; metabolite SDL): 0.0455
Log2(fold change) SID ([2]; metabolite SID): 0.0448
Log2(fold change) Sedoheptulose bisphosphate ([2]; metabolite Sedoheptulose bisphosphate): -0.0991
Log2(fold change) Thiamine pyrophosphate ([2]; metabolite Thiamine pyrophosphate): 0.0203
Log2(fold changes) UDP-D-glucose ([2]; metabolite UDP-D-glucose, log2 fold change): 0.0102
Log2(fold changes) UDP-D-glucuronate ([2]; metabolite UDP-D-glucuronate, log2 fold change): -0.0044
Log2(fold changes) UDP-N-acetyl-glucosamine ([2]; metabolite UDP-N-acetyl-glucosamine, log2 fold change): -0.2854
Log2(fold changes) UDP ([2]; metabolite UDP, log2 fold change): -1.0636
Log2(fold changes) UMP ([2]; metabolite UMP, log2 fold change): -0.5975
Log2(fold changes) UTP ([2]; metabolite UTP, log2 fold change): -1.2395
Log2(fold change) hydroxyphenylpyruvate ([2]; metabolite hydroxyphenylpyruvate): 0.0147
Log2(fold change) hydroxyproline/Aminolevulinate ([2]; metabolite hydroxyproline/Aminolevulinate): -0.0689
Log2(fold change) hypoxanthine ([2]; metabolite hypoxanthine): -0.2575
Log2(fold change) indole ([2]; metabolite indole): -0.1736
Log2(fold change) inosine ([2]; metabolite inosine): -0.1123
Log2(fold change) isoleucine ([2]; metabolite isoleucine): -0.2949
Log2(fold change) lactate ([2]; metabolite lactate): -0.5142
Log2(fold change) leucine ([2]; metabolite leucine): -0.2842
Log2(fold change) lysine ([2]; metabolite lysine): 0.3188
Log2(fold change) malate ([2]; metabolite malate): -0.2336
Log2(fold change) maleic acid ([2]; metabolite maleic acid): -0.1204
Log2(fold change) methionine ([2]; metabolite methionine): -0.2848
Log2(fold change) myo-inositol ([2]; metabolite myo-inositol): -0.2098
Log2(fold change) nicotinamide mononucleotide ([2]; metabolite nicotinamide mononucleotide): -0.0768
Log2(fold change) nicotinate ([2]; metabolite nicotinate): -0.1572
Log2(fold change) ornithine ([2]; metabolite ornithine): 0.0045
Log2(fold change) orotate ([2]; metabolite orotate): 0.1233
Log2(fold change) orotidine-5'-phosphate ([2]; metabolite orotidine-5'-phosphate): -0.3697
Log2(fold change) oxaloacetate ([2]; metabolite oxaloacetate): -0.0126
Log2(fold change) p-aminobenzoate ([2]; metabolite p-aminobenzoate): -0.0050
Log2(fold change) p-hydroxybenzoate ([2]; metabolite p-hydroxybenzoate): 0.0562
Log2(fold change) pantothenate ([2]; metabolite pantothenate): -0.2044
Log2(fold change) phenylalanine ([2]; metabolite phenylalanine): -0.3684
Log2(fold change) phenylpyruvate ([2]; metabolite phenylpyruvate): 0.0000
Log2(fold change) phosphoenolpyruvate ([2]; metabolite phosphoenolpyruvate): -0.0614
Log2(fold change) prephenate ([2]; metabolite prephenate): -0.0378
Log2(fold change) proline ([2]; metabolite proline): -0.1933
Log2(fold change) pyridoxine ([2]; metabolite pyridoxine): -0.3758
Log2(fold change) pyruvate ([2]; metabolite pyruvate): -0.8812
Log2(fold change) riboflavin ([2]; metabolite riboflavin): -0.0986
Log2(fold change) ribose ([2]; metabolite ribose): -0.0745
Log2(fold change) ribose-phosphate ([2]; metabolite ribose-phosphate): -0.1162
Log2(fold change) ribulose-5-phosphate ([2]; metabolite ribulose-5-phosphate): -0.1031
Log2(fold change) serine ([2]; metabolite serine): 0.0478
Log2(fold change) sn-glycerol-3-phosphate ([2]; metabolite sn-glycerol-3-phosphate): 0.1848
Log2(fold change) taurine ([2]; metabolite taurine): 0.0315
Log2(fold change) thiamine ([2]; metabolite thiamine): -0.0450
Log2(fold change) thymidine ([2]; metabolite thymidine): -0.1873
Log2(fold changes) thymine ([2]; metabolite thymine, log2 fold change): 0.0000
Log2(fold changes) trehalose-6-Phosphate ([2]; metabolite trehalose-6-Phosphate, log2 fold change): 0.0905
Log2(fold changes) tryptophan ([2]; metabolite tryptophan, log2 fold change): -0.2480
Log2(fold changes) tyrosine ([2]; metabolite tyrosine, log2 fold change): -0.2052
Log2(fold changes) uridine ([2]; metabolite uridine, log2 fold change): -0.2906
IC50 [3]: 1.1 nM
minimum inoculum for resistance [4]: 2 × 10^7 parasites

From publication PMC7031696 (Cell chemical biology, 2019)
